How the values were obtained:
Assay type in all cases: cell-free
[1] = biological target: Tyrosine-protein kinase JAK1 (Homo sapiens) (UniProt P23458); assay: Inhibition of human JAK1 domain2 in HL-60 cells lysate assessed as reduction of labeling of acyl-phosphate ATP probe at 100 nM
[2] = biological target: T1, Serine/threonine-protein kinase Nek1 (Homo sapiens) (UniProt Q96PY6); assay: Inhibition of human NEK1 in HL-60 cells lysate assessed as reduction of labeling of acyl-phosphate ATP probe at 100 nM
T1 sequence (whole entry): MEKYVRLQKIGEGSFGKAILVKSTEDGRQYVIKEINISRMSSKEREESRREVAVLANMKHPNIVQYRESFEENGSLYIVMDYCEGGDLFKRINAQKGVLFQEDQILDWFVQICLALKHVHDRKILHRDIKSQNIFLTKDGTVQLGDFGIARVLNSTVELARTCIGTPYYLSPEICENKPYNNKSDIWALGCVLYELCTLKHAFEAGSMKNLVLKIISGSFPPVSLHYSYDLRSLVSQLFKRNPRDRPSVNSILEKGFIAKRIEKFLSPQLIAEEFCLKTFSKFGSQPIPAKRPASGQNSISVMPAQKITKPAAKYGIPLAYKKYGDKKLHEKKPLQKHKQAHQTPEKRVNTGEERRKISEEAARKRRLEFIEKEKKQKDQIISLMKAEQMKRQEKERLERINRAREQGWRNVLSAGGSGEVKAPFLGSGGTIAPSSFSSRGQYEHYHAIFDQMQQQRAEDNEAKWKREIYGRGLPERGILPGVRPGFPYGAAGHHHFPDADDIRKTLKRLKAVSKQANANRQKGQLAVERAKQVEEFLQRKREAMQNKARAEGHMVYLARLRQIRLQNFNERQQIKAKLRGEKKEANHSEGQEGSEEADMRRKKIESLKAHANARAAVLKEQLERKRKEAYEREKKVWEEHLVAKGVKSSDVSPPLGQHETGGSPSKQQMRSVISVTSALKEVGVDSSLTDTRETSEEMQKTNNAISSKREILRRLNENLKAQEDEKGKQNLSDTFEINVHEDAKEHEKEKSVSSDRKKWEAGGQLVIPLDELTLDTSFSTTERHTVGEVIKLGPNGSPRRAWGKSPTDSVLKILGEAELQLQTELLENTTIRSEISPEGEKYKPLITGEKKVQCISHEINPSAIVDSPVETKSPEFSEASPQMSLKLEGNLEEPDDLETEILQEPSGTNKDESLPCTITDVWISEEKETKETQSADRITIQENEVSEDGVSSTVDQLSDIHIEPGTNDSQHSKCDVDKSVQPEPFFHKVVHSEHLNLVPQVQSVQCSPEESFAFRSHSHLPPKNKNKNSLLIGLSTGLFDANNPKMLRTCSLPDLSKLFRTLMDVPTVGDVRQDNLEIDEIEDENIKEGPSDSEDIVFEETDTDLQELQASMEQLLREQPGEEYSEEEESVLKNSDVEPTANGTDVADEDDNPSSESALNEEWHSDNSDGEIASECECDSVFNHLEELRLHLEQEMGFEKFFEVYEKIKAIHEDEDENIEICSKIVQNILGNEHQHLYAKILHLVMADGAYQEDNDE

[3] = biological target: Serine/threonine-protein kinase PLK1 (Homo sapiens) (UniProt P53350); assay: Inhibition of human PLK1 in HL-60 cells lysate assessed as reduction of labeling of acyl-phosphate ATP probe at 100 nM
[4] = biological target: Mitogen-activated protein kinase kinase kinase kinase 5 (Homo sapiens) (UniProt Q9Y4K4); assay: Inhibition of human KHS1 in HL-60 cells lysate assessed as reduction of labeling of acyl-phosphate ATP probe at 100 nM
[5] = biological target: T2, Phosphatidylinositol 4,5-bisphosphate 3-kinase catalytic subunit delta isoform (Homo sapiens) (UniProt O00329); assay: Inhibition of human PIK3CD in HL-60 cells lysate assessed as reduction of labeling of acyl-phosphate ATP probe at 100 nM
T2 sequence (whole entry): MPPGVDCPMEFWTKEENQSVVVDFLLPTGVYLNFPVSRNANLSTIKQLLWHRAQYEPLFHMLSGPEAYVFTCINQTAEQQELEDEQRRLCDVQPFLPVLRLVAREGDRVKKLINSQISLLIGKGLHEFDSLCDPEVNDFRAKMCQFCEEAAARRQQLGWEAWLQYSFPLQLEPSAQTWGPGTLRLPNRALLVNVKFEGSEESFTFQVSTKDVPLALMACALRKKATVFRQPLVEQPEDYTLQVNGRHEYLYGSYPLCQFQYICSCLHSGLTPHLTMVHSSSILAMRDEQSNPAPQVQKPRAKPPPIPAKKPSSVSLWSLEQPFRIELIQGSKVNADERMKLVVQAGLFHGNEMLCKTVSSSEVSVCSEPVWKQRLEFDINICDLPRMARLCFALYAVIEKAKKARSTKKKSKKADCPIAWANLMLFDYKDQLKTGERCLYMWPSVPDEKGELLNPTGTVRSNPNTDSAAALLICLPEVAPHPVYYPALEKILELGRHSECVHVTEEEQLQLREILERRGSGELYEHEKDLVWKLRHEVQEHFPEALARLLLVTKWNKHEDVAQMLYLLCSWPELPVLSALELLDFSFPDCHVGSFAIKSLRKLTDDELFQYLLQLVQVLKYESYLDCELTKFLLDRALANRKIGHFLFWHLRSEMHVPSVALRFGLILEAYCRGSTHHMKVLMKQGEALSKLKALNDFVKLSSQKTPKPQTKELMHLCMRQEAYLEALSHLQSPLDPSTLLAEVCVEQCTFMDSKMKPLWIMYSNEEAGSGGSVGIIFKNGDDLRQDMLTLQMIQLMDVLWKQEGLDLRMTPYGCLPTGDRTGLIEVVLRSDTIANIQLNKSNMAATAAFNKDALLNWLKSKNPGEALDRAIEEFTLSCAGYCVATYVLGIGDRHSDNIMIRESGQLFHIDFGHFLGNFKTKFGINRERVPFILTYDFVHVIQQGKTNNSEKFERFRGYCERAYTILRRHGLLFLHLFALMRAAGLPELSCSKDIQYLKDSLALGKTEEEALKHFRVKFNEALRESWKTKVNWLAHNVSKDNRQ

Sequence of Mitogen-activated protein kinase kinase kinase kinase 5 (Homo sapiens) (Q9Y4K4 whole entry, looked up, canonical isoform): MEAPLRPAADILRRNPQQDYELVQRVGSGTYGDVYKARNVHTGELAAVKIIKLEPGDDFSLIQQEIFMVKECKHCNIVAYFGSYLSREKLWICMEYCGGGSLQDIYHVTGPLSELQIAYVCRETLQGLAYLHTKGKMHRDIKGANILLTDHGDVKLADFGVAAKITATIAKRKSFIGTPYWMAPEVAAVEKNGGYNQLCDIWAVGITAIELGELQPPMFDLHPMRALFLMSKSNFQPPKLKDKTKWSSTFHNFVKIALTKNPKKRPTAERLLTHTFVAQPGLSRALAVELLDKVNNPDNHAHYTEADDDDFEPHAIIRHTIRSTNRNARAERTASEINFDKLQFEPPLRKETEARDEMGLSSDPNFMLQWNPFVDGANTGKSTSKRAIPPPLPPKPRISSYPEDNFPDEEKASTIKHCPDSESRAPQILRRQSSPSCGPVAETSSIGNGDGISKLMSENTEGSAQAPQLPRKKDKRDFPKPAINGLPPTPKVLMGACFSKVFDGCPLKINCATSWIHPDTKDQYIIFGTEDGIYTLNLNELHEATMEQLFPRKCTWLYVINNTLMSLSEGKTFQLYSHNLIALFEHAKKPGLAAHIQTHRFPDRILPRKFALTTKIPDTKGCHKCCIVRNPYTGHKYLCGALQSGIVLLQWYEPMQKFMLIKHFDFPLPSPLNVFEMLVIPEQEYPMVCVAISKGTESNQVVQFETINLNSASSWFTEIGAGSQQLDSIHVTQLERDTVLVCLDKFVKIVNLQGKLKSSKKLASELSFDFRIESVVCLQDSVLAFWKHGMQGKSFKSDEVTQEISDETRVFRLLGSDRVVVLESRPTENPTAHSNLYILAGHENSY
Sequence of Serine/threonine-protein kinase PLK1 (Homo sapiens) (P53350 whole entry): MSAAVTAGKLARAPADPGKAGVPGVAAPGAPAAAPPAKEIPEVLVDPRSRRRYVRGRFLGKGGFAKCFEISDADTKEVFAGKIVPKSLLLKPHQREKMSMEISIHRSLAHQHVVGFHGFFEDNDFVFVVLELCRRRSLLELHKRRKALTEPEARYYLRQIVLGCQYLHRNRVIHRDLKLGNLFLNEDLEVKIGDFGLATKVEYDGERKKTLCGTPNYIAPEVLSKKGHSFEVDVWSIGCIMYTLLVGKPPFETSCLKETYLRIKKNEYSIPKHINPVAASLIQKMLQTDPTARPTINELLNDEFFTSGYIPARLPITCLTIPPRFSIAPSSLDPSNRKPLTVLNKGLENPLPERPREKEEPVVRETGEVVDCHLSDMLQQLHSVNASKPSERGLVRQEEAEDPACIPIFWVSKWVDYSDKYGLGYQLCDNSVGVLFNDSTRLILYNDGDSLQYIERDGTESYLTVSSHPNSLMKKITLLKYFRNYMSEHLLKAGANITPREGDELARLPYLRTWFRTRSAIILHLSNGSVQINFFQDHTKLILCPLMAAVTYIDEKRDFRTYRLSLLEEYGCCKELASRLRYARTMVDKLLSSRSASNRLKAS
Sequence of Tyrosine-protein kinase JAK1 (Homo sapiens) (P23458 whole entry, the tested form may be a part): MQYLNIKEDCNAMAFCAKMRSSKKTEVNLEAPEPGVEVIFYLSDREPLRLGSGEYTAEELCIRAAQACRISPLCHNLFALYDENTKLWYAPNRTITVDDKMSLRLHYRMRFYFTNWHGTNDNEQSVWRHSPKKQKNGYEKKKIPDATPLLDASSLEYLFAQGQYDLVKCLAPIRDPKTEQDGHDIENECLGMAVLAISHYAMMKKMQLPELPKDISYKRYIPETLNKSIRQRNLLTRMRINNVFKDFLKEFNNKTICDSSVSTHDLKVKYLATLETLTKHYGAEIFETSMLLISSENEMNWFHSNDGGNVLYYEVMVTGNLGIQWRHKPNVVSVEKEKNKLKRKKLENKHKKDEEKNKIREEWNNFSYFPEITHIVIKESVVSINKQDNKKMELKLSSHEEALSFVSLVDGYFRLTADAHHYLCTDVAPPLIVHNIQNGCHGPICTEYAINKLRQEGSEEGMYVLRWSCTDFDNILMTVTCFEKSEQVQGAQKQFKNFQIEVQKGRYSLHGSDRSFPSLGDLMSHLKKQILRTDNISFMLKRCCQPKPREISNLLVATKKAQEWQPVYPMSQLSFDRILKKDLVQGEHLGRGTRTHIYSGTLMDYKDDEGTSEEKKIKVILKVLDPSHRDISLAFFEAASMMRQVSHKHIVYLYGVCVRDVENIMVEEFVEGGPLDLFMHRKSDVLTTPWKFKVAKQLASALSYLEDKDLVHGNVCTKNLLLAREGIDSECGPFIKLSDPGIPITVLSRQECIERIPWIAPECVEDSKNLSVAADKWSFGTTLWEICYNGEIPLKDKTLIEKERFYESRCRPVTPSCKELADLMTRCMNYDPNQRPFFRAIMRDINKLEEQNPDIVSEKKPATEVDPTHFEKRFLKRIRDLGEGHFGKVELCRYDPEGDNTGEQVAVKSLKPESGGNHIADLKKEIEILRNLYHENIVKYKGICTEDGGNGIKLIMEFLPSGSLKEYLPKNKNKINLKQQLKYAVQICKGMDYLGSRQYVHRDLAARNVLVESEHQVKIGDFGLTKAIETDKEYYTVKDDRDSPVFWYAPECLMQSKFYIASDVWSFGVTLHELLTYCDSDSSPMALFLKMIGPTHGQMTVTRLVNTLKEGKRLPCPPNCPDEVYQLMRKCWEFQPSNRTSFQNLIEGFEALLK

Row | inhibition [1] [%] | inhibition [2] [%] | inhibition [3] [%] | inhibition [4] [%] | inhibition [5] [%] | Compound
1 | < 35 | < 35 | < 35 | < 35 | < 35 | C[C@H]1COc2c(NCCCc3ccccn3)c(F)c(N)c3c(=O)c(C#N)cn1c23
2 | < 35 | < 35 | < 35 | < 35 | < 35 | C[C@H]1COc2c(NCCCn3cccn3)c(F)c(N)c3c(=O)c(C#N)cn1c23
3 | < 35 | < 35 | < 35 | < 35 | < 35 | C[C@H]1COc2c(NCCCc3ccccn3)c(F)c(N)c3c(=O)c(C(=O)O)cn1c23
4 | < 35 | < 35 | < 35 | < 35 | < 35 | C[C@H]1COc2c(NCCCn3cccn3)c(F)c(N)c3c(=O)c(C(=O)O)cn1c23

Reference: ChEMBL document CHEMBL1938230, “6-Position optimization of tricyclic 4-quinolone-based inhibitors of glycogen synthase kinase-3β: discovery of nitrile derivatives with picomolar potency” (Bioorg Med Chem Lett, 2012)
